Consider 12 compounds from publication PMC7482845, “G10 is a direct activator of human STING” (PLoS ONE, 2020).

Assay [1] addresses T1, HAQ STING (THP-1 cells) (Homo sapiens, UniProt Q86WV6, G230A/R293Q/R71H).
T1 construct: THP1 cells constitutively express the HAQ variant of human STING; host or cells: THP-1
The assay is described as follows: THP1 cellular assay (EC50). The class given is cell-based. To be noted: for THP-1 EC50 / EC50: THP-1 cells (HAQ STING); for activation of THP1 cells, in words: THP1 cellular assay.

Assay [2] concerns the target T2, R232 variant of human STING (Homo sapiens, UniProt Q86WV6, H232R).
T2 construct: the ER fraction from R232.STING transfected HEK293T cells which contained full length STING
The assay is described as follows: Luciferase (ISRE.ISG reporter) assay in HEK293T cells stably expressing R232 hSTING. Particulars: for EC50: HEK293T cells expressing R232 hSTING, luciferase reporter, read-out: HEK.R232 EC50; for activity against R232 STING, in words: HEK.R232 cellular assay. The class given is cell-based. The source says: (§1) • a) Stable STING expressing cells. Stable HEK293T STING-expressing cell lines were generated using plasmids purchased from Invivogen, CA, USA, that contain STING cDNA cloned into the pUNO-1 vector under the hEF1-HTLV promoter as well as the Blasticidin selection cassette. The human STING plasmids corresponding to the R232, H232 and HAQ variants were directly procured from Invivogen while the AQ and Q variants were created by mismatch PCR using cDNA from HAQ.STING and R232.STING variants respectively. These vectors were individually transfected into HEK293T cells using Lipofectamine (Invitrogen) and transfected cells were expanded under Blasticidin selection. These cells were further subjected to clonal selection using the limiting dilution method to obtain clonally pure populations of HEK293T cells expressing each of the five human STING variants. Clones with minimal ligand independent activation of STING were chosen for cellular experiments. • b) N-His R232.hSTING HEK293T cells. HEK293T cells stably expressing N-His R232.hSTING were generated by the following described method. N-His R232.hSTING.pcDNA Myc B plasmid was transfected into HEK293T cells using Lipofectamine reagent (Invitrogen) and the transfected cells were selected under Hygromycin. Stably STING expressing HEK293T cells thus selected were further subjected to single cell clonal selection using the limiting dilution method to obtain a clonally pure population of HEK293T cells expressing the human R232 STING variant.
[…] clonally selected HEK293T-hSTING-Luciferase cells or control HEK293T-Luciferase cells were seeded in 384-well plates in growth medium and stimulated with known STING agonists or novel compounds. […]
In general terms: Reporter assays use an easily measured gene product as a stand-in for the process of interest.

Assay [3] has as its system multiple STING variants overexpressed in HEK293T cells. Briefly: Luciferase reporter assay of STING variants overexpressed in HEK293T cells (Compound 8). It is filed as cell-based, human. To be noted: HEK293T cells (S4 Fig).
Text: as §1, with “HEK293T cells stably expressing N-His R232.hSTING were generated by the following described method. N-His R232.hSTING.pcDNA Myc B plasmid was transfected into HEK293T cells using Lipofectamine reagent (Invitrogen) and the transfected cells were selected under Hygromycin. Stably STING expressing HEK293T cells thus selected were further subjected to single cell clonal selection using the limiting dilution method to obtain a clonally pure population of HEK293T cells expressing the human R232 STING variant.” left out
5 x 10^5 clonally selected HEK293T-hSTING-Luciferase cells or control HEK293T-Luciferase cells were seeded in 384-well plates in growth medium and stimulated with known STING agonists or novel compounds. Supernatants were removed after 20 hours of treatment and secretory reporter gene activity was measured using the Quanti-Luc detection system (Invivogen) on a Spectramax i3X luminometer.

Assay [4] addresses T3, STING in human tumor lines (Homo sapiens, UniProt Q86WV6).
T3 construct: endogenous in cells
The assay is described as follows: Phosphorylation of STING in human tumor lines. It is filed as cell-based. To be noted: S7 Fig.

For assay [5], the target named is T4, STING in human PBMCs (Homo sapiens, UniProt Q86WV6).
T4 construct: endogenous in cells; host or cells: human PBMCs, multiple donors
Briefly: Phosphorylation of STING in human PBMCs. It is filed as cell-based. To be noted: multiple donors (S6 Fig).

For assay [6], the system named is Human STING variants (HEK293T cells). The assay is described as follows: Phosphorylation of STING variants overexpressed in HEK293T cells (Compound 8). It is filed as cell-based. Particulars: HEK293T cells (S5 Fig). As to the method: 5 x 10^5 cells were seeded in 24-well plates in 500 μl growth medium and stimulated with novel compounds at 10μM. After 2 hours of treatment cells were harvested by centrifugation and cell pellets were lysed in RIPA buffer (20mM Tris-Cl, 150mM NaCl, 0.5mM EDTA, 1% NP40, 0.05% SDS) containing 1x phosphatase inhibitor cocktail 3 (Sigma) and 1x protease inhibitor (Roche) to extract the soluble fraction of protein. 10 μg of extracted protein was electrophoresed in 10% SDS-PAGE gels and transferred onto Immobilon-P membranes (Millipore). […] Anti-rabbit HRP label secondary antibody (Abcam) and Clarity Max™ western ECL substrate (Biorad—cat# 1705062) were used for visualization of bands using a BioRad XRS plus imager.

Assay [7] addresses T5, recombinant CTT domain of R232 STING (Homo sapiens, UniProt Q86WV6, H232R).
T5 construct: corresponding to the soluble domain of STING (138 to 379 aa) protein; purchased Cayman Chemicals (STING); Invitrogen (TBK1) 22816 (STING); A31514 (TBK1)
The assay is described as follows: In vitro kinase assay, recombinant CTT domain of R232 STING plus recombinant TBK1. It is filed as biochemical. Particulars: STING source not stated (S3 Fig). The procedure:
50ng of recombinant STING protein (Cayman Chemicals Cat# 22816) corresponding to the soluble domain of STING (138 to 379 aa) protein or 1 μl of ER fraction (8mg/ml) containing full length STING from R232.hSTING was incubated with 20 ng of recombinant full length TBK1 protein (Invitrogen, Cat# A31514) in the presence/absence of test compound in 20 μl reaction buffer (50mM Tris-HCl of pH 7.4, 100mM NaCl, 5mM MgCl2, 5mM MnCl2, 10% glycerol, 0.2mM Na3VO4, 20mM β-glycero-PO4, 0.5mM ATP) and 0.01% BSA at 30 °C for 45 min. The reaction was quenched by addition of 2 μl of 10X EDTA to a final concentration of […]. Samples were treated with 4x gel loading dye followed by electrophoresis in 10% SDS-PAGE gels and transferred to Immobilon-P membranes (Millipore). […] Anti-rabbit HRP labelled secondary antibody (Abcam) and Clarity Max™ western ECL substrate (Biorad, Cat# 1705062) were used for visualization of bands using a BioRad XRS plus imager.

In assay [8] the test system is human STING. On the set-up: method as in PMID 23585680. To be noted: any variant of human STING; cited from earlier work.

SMILES strings stand for the structures.

T2 sequence (Q86WV6 whole entry H232R): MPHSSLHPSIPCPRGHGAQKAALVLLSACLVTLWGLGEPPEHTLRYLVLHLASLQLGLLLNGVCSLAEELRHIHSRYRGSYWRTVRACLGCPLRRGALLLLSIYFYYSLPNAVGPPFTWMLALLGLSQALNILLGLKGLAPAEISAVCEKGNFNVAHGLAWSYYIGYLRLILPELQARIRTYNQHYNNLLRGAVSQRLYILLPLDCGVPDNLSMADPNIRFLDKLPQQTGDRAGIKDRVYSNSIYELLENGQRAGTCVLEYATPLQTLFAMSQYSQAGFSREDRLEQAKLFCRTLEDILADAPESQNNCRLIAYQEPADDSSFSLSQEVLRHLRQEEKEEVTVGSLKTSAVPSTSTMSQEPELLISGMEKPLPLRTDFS
T1 sequence (Q86WV6 whole entry R71H/G230A/R293Q): as the sequence (Q86WV6 whole entry H232R) above, with R71H, G230A, R232H, R293Q counted along it
T4 sequence (Q86WV6 whole entry): as the sequence (Q86WV6 whole entry H232R) above, with R232H counted along it
T3 sequence (Q86WV6 whole entry): as the sequence (Q86WV6 whole entry H232R) above, with R232H counted along it
T5 sequence (Q86WV6 138-379 H232R): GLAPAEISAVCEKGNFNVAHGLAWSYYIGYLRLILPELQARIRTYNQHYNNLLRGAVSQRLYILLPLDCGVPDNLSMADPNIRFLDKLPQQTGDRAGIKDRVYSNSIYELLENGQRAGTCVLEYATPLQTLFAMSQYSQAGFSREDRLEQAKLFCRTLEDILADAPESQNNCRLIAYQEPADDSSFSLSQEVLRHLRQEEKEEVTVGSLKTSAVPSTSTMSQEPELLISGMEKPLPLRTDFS

As to `O=C(NCc1ccco1)c1ccc2c(c1)N(Cc1c(Cl)cccc1Cl)C(=O)CS2` [Compound 1, 4-(2,6-Dichlorobenzyl)-N-(furan-2-ylmethyl)-3-oxo-3,4-dihydro-2H-benzo[b][1,4]thiazine-6-carboxamide], in assay [1], the “THP-1 EC50” value is “Nil @ 30uM”. In addition, in assay [2], the EC50 was found to be 2160 nM.

For `O=C(NCc1ccco1)c1ccc2c(c1)N(Cc1c(F)cccc1F)C(=O)CS2` [Compound 2, 4-(2,6-Difluorobenzyl)-N-(furan-2-ylmethyl)-3-oxo-3,4-dihydro-2H-benzo[b][1,4]thiazine-6-carboxamide], the “THP-1 EC50” value in assay [1] was “Nil @ 30uM”. The EC50 in assay [2] turned out to be 3970 nM.

Consider `O=C(NCc1ccco1)c1ccc2c(c1)N(Cc1ccccc1)C(=O)CS2` [Compound 3, 1-Benzyl-N-(furan-2-ylmethyl)-2-oxo-2,3-dihydro-1H-benzo[b][1,4]thiazine-7-carboxamide], for which, in assay [1], the “THP-1 EC50” value is given as “Nil @ 30uM”. Moreover, the EC50 in assay [2] was 9130 nM.

Consider `O=C(NCc1ccc(F)cc1F)c1ccc2c(c1)N(Cc1c(F)cccc1Cl)C(=O)CS2` [Compound 4, 4-(2-Chloro-6-fluorobenzyl)-N-(2,4-difluorobenzyl)-3-oxo-3,4-dihydro-2H-benzo[b][1,4]thiazine-6-carboxamide], for which, in assay [1], the “activation of THP1 cells, in words” value is “very weak activation” and the EC50 was greater than 30000 nM. Besides, the EC50 in assay [2] is 292 nM.

`O=C(NCc1c(F)cc(F)cc1F)c1ccc2c(c1)N(Cc1c(F)cccc1Cl)C(=O)CS2` [Compound 5, 4-(2-Chloro-6-fluorobenzyl)-3-oxo-N-(2,4,6-trifluorobenzyl)-3,4-dihydro-2H-benzo[b][1,4]thiazine-6-carboxamide]: in assay [1], the “activation of THP1 cells, in words” value is “very weak activation” and the EC50 is greater than 10000 nM. The EC50 in assay [2] came out at 188 nM.

As for `COc1cc(F)c(CN2C(=O)CSc3ccc(C(=O)NCc4c(F)cc(F)cc4F)cc32)c(F)c1` [Compound 6, 4-(2,6-Difluoro-4-methoxybenzyl)-3-oxo-N-(2,4,6-trifluorobenzyl)-3,4-dihydro-2H-benzo[b][1,4]thiazine-6-carboxamide], the EC50 in assay [1] is greater than 10000 nM. Besides, in assay [2], the EC50 stood at 160 nM and the “activity against R232 STING, in words” value is recorded as “sharp increases in activity”.

`O=C(NCc1c(F)cc(F)cc1F)c1ccc2c(c1)N(Cc1c(F)cc(O)cc1F)C(=O)CS2` [Compound 7, 4-(2,6-Difluoro-4-hydroxybenzyl)-3-oxo-N-(2,4,6-trifluorobenzyl)-3,4-dihydro-2H-benzo[b][1,4]thiazine-6-carboxamide]: in assay [1], the “activation of THP1 cells, in words” value was “significant activity” and it took 1380 nM to reach a half-maximal effect (EC50). For the same compound, in assay [2], the EC50 came to 71.6 nM and the “activity against R232 STING, in words” value was “sharp increases in activity”.

For the compound `CC1Sc2ccc(C(=O)NCc3c(F)cc(F)cc3F)cc2N(Cc2c(F)cccc2Cl)C1=O` (stereo not shown) [Compound 8, 4-(2-Chloro-6-fluorobenzyl)-2-methyl-3-oxo-N-(2,4,6-trifluorobenzyl)-3,4-dihydro-2H-benzo[b][1,4]thiazine-6-carboxamide], in assay [3], the “activation of multiple STING variants, luciferase reporter assay” value is on record as “activated”. The “phosphorylation of STING in human tumor lines” value in assay [4] is given as “phosphorylated STING”. Besides, the “phosphorylation of STING in human PBMCs” value in assay [5] is listed as “phosphorylated STING”. The “phosphorylation of human STING variants” value in assay [6] is “phosphorylated”. In addition, in assay [1], the “activation of THP1 cells, in words” value was “sub-micromolar activity” and the EC50 was 944 nM. Further, the “activity in the cell-free pSTING assay” value in assay [7] is listed as “confirmed activity”. In assay [2], the EC50 was found to be 122 nM and the “activity against R232 STING, in words” value is reported as “sub-micromolar activity”.

Regarding `CC1Sc2ccc(C(=O)NCc3c(F)cc(F)cc3F)cc2N(Cc2c(F)ccc(O)c2Cl)C1=O` (stereo not shown) [Compound 9, 4-(2-Chloro-6-fluoro-3-hydroxybenzyl)-2-methyl-3-oxo-N-(2,4,6-trifluorobenzyl)-3,4-dihydro-2H-benzo[b][1,4]thiazine-6-carboxamide], in assay [1], the “activation of THP1 cells, in words” value is “sub-micromolar activity” and the 50% effective concentration (EC50) was found to be 412 nM. Further, in assay [2], the EC50 stood at 96 nM and the “activity against R232 STING, in words” value was “sub-micromolar activity”.

For `CC1Sc2ccc(C(=O)NCc3c(F)cc(F)cc3F)cc2N(Cc2cc(F)cc(F)c2)C1=O` (stereo not shown) [Compound 10], the concentration for a half-maximal effect (EC50) was roughly 6000 nM in assay [1] and 421 nM in assay [2].

Regarding `CC1Sc2ncc(C(=O)NCc3cc4ccccc4o3)cc2N(Cc2cc(F)cc(F)c2)C1=O` (stereo not shown) [Compound 12, N-(Benzofuran-2-ylmethyl)-1-(3,5-difluorobenzyl)-3-methyl-2-oxo-2,3-dihydro-1H-pyrido[2,3-b][1,4]thiazine-7-carboxamide], the EC50 in assay [1] is roughly 8000 nM; in assay [2] it was 91 nM.

As for `Cc1ccc2c(=O)c3cccc(CC(=O)O)c3oc2c1C` [DMXAA, 5,6 dimethyl xanthenone 4-acetic acid], the “activation of human STING variants” value in assay [8] was “does not activate”.

As usually defined, the EC50 is the midpoint of the concentration-response curve.
